Reference: ChEMBL document CHEMBL1153244, “Tetrasubstituted pyridines as potent and selective AKT inhibitors: Reduced CYP450 and hERG inhibition of aminopyridines” (Bioorg Med Chem Lett, 2010)

What was measured:
[1] = test system: BT-474; test: Antiproliferative activity against human BT474 cells; format: functional, cell-based
[2] = molecular target: Cytochrome P450 3A4 (Homo sapiens, UniProt P08684); test: Inhibition of CYP3A4; format: ADME
[3] = molecular target: RAC-alpha serine/threonine-protein kinase (Homo sapiens, UniProt P31749); test: Inhibition of human AKT1
RAC-alpha serine/threonine-protein kinase, sequence (P31749 whole entry): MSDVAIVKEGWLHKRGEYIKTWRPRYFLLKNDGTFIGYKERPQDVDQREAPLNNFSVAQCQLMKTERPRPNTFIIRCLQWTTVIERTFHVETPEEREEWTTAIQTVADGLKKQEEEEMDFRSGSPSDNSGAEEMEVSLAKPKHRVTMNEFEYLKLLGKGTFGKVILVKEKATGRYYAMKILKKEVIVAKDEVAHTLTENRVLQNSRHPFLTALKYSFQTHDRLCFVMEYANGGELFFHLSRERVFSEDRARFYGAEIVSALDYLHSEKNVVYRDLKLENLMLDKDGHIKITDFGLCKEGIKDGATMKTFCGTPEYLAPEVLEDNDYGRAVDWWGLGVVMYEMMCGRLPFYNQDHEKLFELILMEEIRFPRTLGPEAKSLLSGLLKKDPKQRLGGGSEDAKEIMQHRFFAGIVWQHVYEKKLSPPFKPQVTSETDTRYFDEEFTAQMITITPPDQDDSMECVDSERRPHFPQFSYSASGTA

[4] = molecular target: RAC-beta serine/threonine-protein kinase (Homo sapiens, UniProt P31751); test: Inhibition of human AKT2
RAC-beta serine/threonine-protein kinase, sequence (P31751 whole entry): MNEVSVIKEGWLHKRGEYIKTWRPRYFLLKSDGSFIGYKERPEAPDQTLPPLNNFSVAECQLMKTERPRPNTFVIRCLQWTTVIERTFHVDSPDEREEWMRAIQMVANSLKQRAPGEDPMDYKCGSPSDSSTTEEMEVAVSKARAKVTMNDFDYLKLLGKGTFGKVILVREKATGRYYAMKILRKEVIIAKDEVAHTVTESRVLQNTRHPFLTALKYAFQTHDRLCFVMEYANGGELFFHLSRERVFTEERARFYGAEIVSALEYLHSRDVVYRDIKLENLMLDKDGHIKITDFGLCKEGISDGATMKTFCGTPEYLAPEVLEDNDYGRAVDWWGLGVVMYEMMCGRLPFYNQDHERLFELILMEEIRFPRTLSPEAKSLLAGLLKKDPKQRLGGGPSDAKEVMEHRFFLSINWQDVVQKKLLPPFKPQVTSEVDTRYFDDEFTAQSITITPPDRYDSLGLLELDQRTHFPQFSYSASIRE

[5] = molecular target: RAC-gamma serine/threonine-protein kinase (Homo sapiens, UniProt Q9Y243); test: Inhibition of human AKT3
RAC-gamma serine/threonine-protein kinase, sequence (Q9Y243 whole entry): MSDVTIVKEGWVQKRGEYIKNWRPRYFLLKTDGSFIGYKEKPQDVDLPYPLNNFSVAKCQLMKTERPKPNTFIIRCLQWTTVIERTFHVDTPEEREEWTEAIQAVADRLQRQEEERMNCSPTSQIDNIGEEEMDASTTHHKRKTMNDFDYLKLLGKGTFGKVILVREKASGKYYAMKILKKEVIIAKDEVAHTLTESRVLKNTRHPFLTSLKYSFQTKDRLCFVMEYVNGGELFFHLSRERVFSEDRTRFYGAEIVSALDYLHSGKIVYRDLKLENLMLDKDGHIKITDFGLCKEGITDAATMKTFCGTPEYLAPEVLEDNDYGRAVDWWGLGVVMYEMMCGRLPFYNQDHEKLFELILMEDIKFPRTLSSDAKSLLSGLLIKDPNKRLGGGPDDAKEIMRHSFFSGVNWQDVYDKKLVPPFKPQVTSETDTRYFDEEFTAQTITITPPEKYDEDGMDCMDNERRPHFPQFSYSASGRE

[6] = test system: Mus musculus; test: Dose normalized AUC (0 to t) in mouse at 2.2 mg, iv; format: ADME, organism-based; conditions: in vivo
[7] = Clearance in mouse at 2.2 mg, iv; format: ADME, organism-based; conditions: in vivo
[8] = test system: Rattus norvegicus; test: Dose normalized AUC (0 to t) in rat at 2.4 mg, iv; format: ADME, organism-based; conditions: in vivo
[9] = Clearance in rat at 2.4 mg, iv; format: ADME, organism-based; conditions: in vivo
[10] = test system: Canis familiaris; test: Dose normalized AUC (0 to t) in dog at 3.1 mg, iv; format: ADME, organism-based, Canis lupus familiaris; conditions: in vivo
[11] = Clearance in dog at 3.1 mg, iv; format: ADME, organism-based, Canis lupus familiaris; conditions: in vivo
[12] = test system: Rhesus monkey; test: Dose normalized AUC (0 to t) in monkey at 3.0 mg, iv; format: ADME, organism-based, Macaca mulatta; conditions: in vivo
[13] = Clearance in monkey at 3.0 mg, iv; format: ADME, organism-based, Macaca mulatta; conditions: rhesus monkey, in vivo
[14] = molecular target: T1, Voltage-gated inwardly rectifying potassium channel KCNH2 (Homo sapiens, UniProt Q12809); test: Inhibition of human ERG
T1 sequence (Q12809 whole entry): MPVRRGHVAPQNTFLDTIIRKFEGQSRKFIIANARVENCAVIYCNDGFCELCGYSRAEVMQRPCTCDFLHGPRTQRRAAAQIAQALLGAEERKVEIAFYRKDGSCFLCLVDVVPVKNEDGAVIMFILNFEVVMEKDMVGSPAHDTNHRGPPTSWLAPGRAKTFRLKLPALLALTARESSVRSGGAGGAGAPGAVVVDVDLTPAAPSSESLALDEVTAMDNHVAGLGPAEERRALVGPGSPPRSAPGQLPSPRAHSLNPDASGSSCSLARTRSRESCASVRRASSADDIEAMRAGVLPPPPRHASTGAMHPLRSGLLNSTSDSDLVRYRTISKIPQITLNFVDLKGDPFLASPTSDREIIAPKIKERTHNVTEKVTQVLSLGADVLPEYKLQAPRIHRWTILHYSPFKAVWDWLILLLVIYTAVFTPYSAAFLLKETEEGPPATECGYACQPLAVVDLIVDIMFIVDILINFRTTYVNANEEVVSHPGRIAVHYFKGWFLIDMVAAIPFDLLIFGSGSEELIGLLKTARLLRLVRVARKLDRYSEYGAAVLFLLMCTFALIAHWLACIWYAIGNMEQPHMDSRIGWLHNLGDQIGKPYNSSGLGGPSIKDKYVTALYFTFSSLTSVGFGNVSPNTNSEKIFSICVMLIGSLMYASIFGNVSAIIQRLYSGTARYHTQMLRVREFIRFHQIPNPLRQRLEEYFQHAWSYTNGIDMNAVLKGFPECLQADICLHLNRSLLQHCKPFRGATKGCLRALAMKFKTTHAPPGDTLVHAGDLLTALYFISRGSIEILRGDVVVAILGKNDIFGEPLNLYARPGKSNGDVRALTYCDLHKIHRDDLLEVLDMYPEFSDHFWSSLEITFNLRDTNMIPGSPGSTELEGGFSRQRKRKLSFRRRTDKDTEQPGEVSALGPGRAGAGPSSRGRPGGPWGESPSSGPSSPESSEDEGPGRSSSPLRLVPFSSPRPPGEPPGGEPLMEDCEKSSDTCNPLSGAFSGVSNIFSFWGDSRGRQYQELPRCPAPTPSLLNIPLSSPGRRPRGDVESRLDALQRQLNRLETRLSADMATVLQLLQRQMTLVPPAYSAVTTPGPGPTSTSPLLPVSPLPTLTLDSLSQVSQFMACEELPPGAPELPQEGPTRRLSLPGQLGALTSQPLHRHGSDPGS

[15] = molecular target: T1, Voltage-gated inwardly rectifying potassium channel KCNH2; test: Inhibition of human ERG relative to control
[16] = test system: Mus musculus; test: Antitumor activity against human BT474 cells xenografted in ip dosed mouse assessed as inhibition of tumor growth; conditions: BT-474
[17] = test system: Mus musculus; test: Antitumor activity against human BT474 cells xenografted in mouse assessed as reduction in tumor volume at 30 mg/kg, ip; parameters: scale not given: the % may be the effect or the level left; conditions: route intraperitoneal
[18] = test system: Mus musculus; test: Dose normalized AUC (0 to t) in mouse at 9.6 mg, ip; format: ADME, organism-based; conditions: in vivo
[19] = test system: Rattus norvegicus; test: Dose normalized AUC (0 to t) in rat at 10.6 mg, iv; format: ADME, organism-based; conditions: in vivo
[20] = Clearance in rat at 10.6 mg, iv; format: ADME, organism-based; conditions: in vivo
[21] = test system: Canis familiaris; test: Dose normalized AUC (0 to t) in dog at 2.4 mg, iv; format: ADME, organism-based, Canis lupus familiaris; conditions: in vivo
[22] = Clearance in dog at 2.4 mg, iv; format: ADME, organism-based, Canis lupus familiaris; conditions: in vivo
[23] = test system: Rhesus monkey; test: Dose normalized AUC (0 to t) in monkey at 3.1 mg, iv; format: ADME, organism-based, Macaca mulatta; conditions: in vivo
[24] = Clearance in monkey at 3.1 mg, iv; format: ADME, organism-based, Macaca mulatta; conditions: rhesus monkey, in vivo

Cytochrome P450 3A4, sequence (P08684 whole entry): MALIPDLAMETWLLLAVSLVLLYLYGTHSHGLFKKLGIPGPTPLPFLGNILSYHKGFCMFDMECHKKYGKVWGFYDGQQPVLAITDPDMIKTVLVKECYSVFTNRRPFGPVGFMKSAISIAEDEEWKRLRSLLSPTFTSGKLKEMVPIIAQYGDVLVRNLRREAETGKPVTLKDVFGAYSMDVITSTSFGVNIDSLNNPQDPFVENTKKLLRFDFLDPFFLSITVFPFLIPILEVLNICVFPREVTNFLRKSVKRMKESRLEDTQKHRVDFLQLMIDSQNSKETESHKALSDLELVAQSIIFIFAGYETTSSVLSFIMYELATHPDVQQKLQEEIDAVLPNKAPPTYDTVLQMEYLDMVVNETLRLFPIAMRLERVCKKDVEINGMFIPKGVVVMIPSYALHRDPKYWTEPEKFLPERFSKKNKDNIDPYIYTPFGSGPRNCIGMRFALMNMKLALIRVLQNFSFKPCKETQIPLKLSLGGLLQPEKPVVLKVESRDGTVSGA

| SMILES | IC50 [1] [nM] | IC50 [2] [nM] | IC50 [3] [nM] | IC50 [4] [nM] | IC50 [5] [nM] | other results |
| --- | --- | --- | --- | --- | --- | --- |
| Cc1n[nH]c2ncc(-c3cc(OC[C@@H](N)Cc4c[nH]c5ccccc45)c(C#N)nc3-c3ccoc3)nc12 |  | 790 | 10 | 250 | 19 |  |
| CCNc1nc(-c2ccoc2)c(-c2cnc3[nH]nc(C)c3n2)cc1OC[C@@H](N)Cc1ccccc1 | 3900 | 5000 | 500 | 6300 | 500 |  |
| Cc1n[nH]c2ncc(-c3cc(OC[C@@H](N)Cc4c[nH]c5ccccc45)cnc3-c3ccoc3)nc12 |  |  |  |  |  | AUC [18]: 96 ng·h/mL/mg; AUC [19]: 301 ng·h/mL/mg; clearance [20]: 53.2 mL/min/kg; AUC [21]: 425 ng·h/mL/mg; clearance [22]: 34.4 mL/min/kg; AUC [23]: 386 ng·h/mL/mg; clearance [24]: 39.1 mL/min/kg |
| Cc1occc1-c1nc(N)c(OC[C@@H](N)Cc2ccccc2)cc1-c1cnc2[nH]nc(C)c2n1 | 580 | 3200 | 6 | 130 | 6 |  |
| Cc1occc1-c1nc(N)c(OC[C@@H](N)Cc2c[nH]c3ccccc23)cc1-c1cnc2[nH]nc(C)c2c1 | 470 | 1000 | 1 | 15 | 2 |  |
| Cc1nc(-c2ccoc2)c(-c2cnc3[nH]nc(C)c3n2)cc1OC[C@@H](N)Cc1c[nH]c2ccccc12 | 1260 | 630 | 3 | 63 | 10 |  |
| Cc1occc1-c1nc(N)c(OC[C@@H](N)Cc2c(C#N)[nH]c3ccccc23)cc1-c1cnc2[nH]nc(C)c2n1 | 2800 | 1600 | 1 | 7 | 1 |  |
| Cc1occc1-c1ncc(OC[C@@H](N)Cc2c[nH]c3ccccc23)cc1-c1cnc2[nH]nc(C)c2n1 | 290 | 630 | 1 | 25 |  | inhibition (INH) [15]: 83.4% |
| Cc1occc1-c1nc(N)c(OC[C@@H](N)Cc2c[nH]c3ccccc23)cc1-c1ccc2[nH]nc(C)c2c1 | 200 | 100 | 3 | 15 | 1 |  |

More lines, in order of falling IC50 [3], values ahead:

| IC50 [1] [nM] | IC50 [2] [nM] | IC50 [3] [nM] | IC50 [4] [nM] | IC50 [5] [nM] | SMILES | other results |
| --- | --- | --- | --- | --- | --- | --- |
| 150 | 500 | 1 | 12 | 2 | Cc1occc1-c1nc(N)c(OC[C@@H](N)Cc2c(Cl)[nH]c3ccccc23)cc1-c1cnc2[nH]nc(C)c2n1 |  |
| > 10000 |  | 1 | 15 | 1 | Cc1occc1-c1nc(N)c(OC[C@@H](N)Cc2c(C(N)=O)[nH]c3ccccc23)cc1-c1cnc2[nH]nc(C)c2n1 |  |
| 300 | 1300 | 1 | 13 | 3 | Cc1occc1-c1nc(N)c(OC[C@@H](N)Cc2c[nH]c3ccccc23)cc1-c1cc2c(C)n[nH]c2cn1 |  |
| 310 | 5000 | 1 | 19 | 2 | Cc1occc1-c1nc(N)c(OC[C@@H](N)Cc2c[nH]c3ccccc23)cc1-c1cnc2[nH]nc(C)c2n1 | AUC [6]: 170 ng·h/mL/mg; clearance [7]: 98.9 mL/min/kg; AUC [8]: 303 ng·h/mL/mg; clearance [9]: 46 mL/min/kg; AUC [10]: 630 ng·h/mL/mg; clearance [11]: 25.3 mL/min/kg; AUC [12]: 853 ng·h/mL/mg; clearance [13]: 22.3 mL/min/kg; IC50 [14]: 10400 nM; inhibition (INH) [15]: 95%; Activity [16]: Dose-dependent effect; Activity [17]: 59% |
